Assay results from patent publication US11089783B2, “2-(het)aryl-substituted fused heterocycle derivatives as pesticides” (Bayer Aktiengesellschaft, priority 2017, dated 2021).

How the values were obtained:
Assay type in all cases: in vivo
Lucilia cuprina = Lucilia cuprina test; conditions: 48 h, L1 larvae, after 2 days, read-out: efficacy (kill)
Description: Solvent: dimethyl sulfoxide To produce a suitable active ingredient formulation, 10 mg of active ingredient are mixed with 0.5 ml of dimethyl sulfoxide, and the concentrate is diluted with water to the desired concentration. About 20 L1 larvae of the Australian sheep blowfly (Lucilia cuprina) are transferred into a test vessel containing minced horsemeat and the active ingredient formulation of the desired concentration. After 2 days, the kill in % is determined. 100% means that all the larvae have been killed; 0% means that no larvae have been killed.

Myzus persicae [1] = assay: Myzus persicae oral test; conditions: 120 h, after 5 days, read-out: efficacy
Description: [table] To produce a suitable active ingredient formulation, 1 part by weight of active ingredient is dissolved with the stated parts by weight of solvent and made up to the desired concentration with water. 50 μl of the active ingredient preparation are transferred into microtitre plates and made up to a final volume of 200 μl with 150 μl of IPL41 insect medium (33%+15% sugar). Subsequently, the plates are sealed with parafilm, which a mixed population of green peach aphids (Myzus persicae) within a second microtitre plate is able to puncture and imbibe the solution. After 5 days, the efficacy in % is determined. 100% means that all the aphids have been killed; 0% means that no aphids have been killed.

Myzus persicae [2] = assay: Myzus persicae spray test (MYZUPE), Chinese cabbage leaf discs; conditions: Myzus persicae, foliar, 120 h; for pest or weed control at 20 g/ha / pest or weed control at 100 g/ha: 5 days (5 dat), read-out: efficacy
Description: (§1) [table] To produce a suitable active ingredient formulation, 1 part by weight of active ingredient is dissolved with the specified parts by weight of solvent and made up to the desired concentration with water containing an emulsifier concentration of 1000 ppm. To produce further test concentrations, the formulation is diluted with emulsifier-containing water. Discs of Chinese cabbage leaves (Brassica pekinensis) infested by all stages of the green peach aphid (Myzus persicae) are sprayed with an active ingredient formulation of the desired concentration. After 5 days, the efficacy in % is determined. 100% means that all the aphids have been killed; 0% means that no aphids have been killed. [table] To produce an appropriate active ingredient formulation, 1 part by weight of active ingredient is dissolved with the stated parts by weight of solvent and made up with water containing an emulsifier concentration of 1000 ppm until the desired concentration is attained. For production of further test concentrations, the mixture is diluted with emulsifier-containing water. Discs of chinese cabbage leaves (Brassica pekinensis) infested by all stages of the green peach aphid (Myzus persicae) are sprayed with an active ingredient formulation of the desired concentration. After the desired time, the efficacy in % is determined. 100% means that all aphids have been killed; 0% means that no aphids have been killed.

Phaedon cochleariae [3] = assay: Phaedon cochleariae spray test (PHAECO), Chinese cabbage leaf discs; conditions: for pest or weed control at 100 g/ha: 7 days (7 dat), read-out: efficacy
Description: as §1, with “pekinensis)” for “pekinensis) infested by all stages of the green peach aphid (Myzus persicae)”, “concentration and, after drying, populated with larvae of the mustard beetle (Phaedon cochleariae).” for “concentration.”, “7” for “5”, “beetle larvae” for “aphids”

Aphis gossypii = Aphis gossypii spray test (APHIGO), cotton plants; conditions: Aphis gossypii, 144 h, 6 dat, read-out: % efficacy
Description: (§2) [table] To produce an appropriate active ingredient formulation, 1 part by weight of active ingredient is dissolved with the specified parts by weight of solvent and made up with water containing an emulsifier concentration of 1000 ppm until the desired concentration is attained. To produce further test concentrations, the mixture is diluted with emulsifier-containing water. If addition of ammonium salts or/and penetrants is required, these are each added to the preparation solution in a concentration of 1000 ppm. Cotton plants (Gossypium hirsutum) severely infested by the cotton aphid (Aphis gossypii) are sprayed with an active ingredient formulation of the desired concentration. After the desired time, the kill in % is determined. 100% means that all aphids have been killed; 0% means that no aphids have been killed.

Myzus persicae [4] = assay: Myzus persicae spray test (MYZUPE S), bell pepper plants; conditions: 144 h, 4 ppm, 6 dat, read-out: % efficacy
Description: [table] To produce an appropriate active ingredient formulation, 1 part by weight of active ingredient is dissolved with the specified parts by weight of solvent and made up with water containing an emulsifier concentration of 1000 ppm until the desired concentration is attained. To produce further test concentrations, the mixture is diluted with emulsifier-containing water. If addition of ammonium salts or/and penetrants is required, these are each added to the preparation solution in a concentration of 1000 ppm. Bell pepper plants (Capsicum annuum) severely infested by the green peach aphid (Myzus persicae) are treated by spraying with the active ingredient formulation in the desired concentration. After the desired time, the kill in % is determined. 100% means that all the animals have been killed; 0% means that no animals have been killed.

Nilaparvata lugens = Nilaparvata lugens spray test (NILALU); conditions: 4 dat; for Emax at 20 g/ha / % efficacy: 20 g/ha
Description: as §2, with “ppm. Rice” for “ppm. Cotton”, “plants (Oryza sativa)” for “plants (Gossypium hirsutum) severely infested by the cotton aphid (Aphis gossypii)”, “desired concentration and then populated with larvae of the brown planthopper (Nilaparvata lugens).” for “desired concentration.”, “the efficacy” for “the kill”, “all planthoppers” for “all aphids”, “no planthoppers” for “no aphids”

Meloidogyne incognita = Meloidogyne incognita test (MELGIN); conditions: 20 ppm, 14 days (14 dat)
Description: [table] To produce a suitable active ingredient formulation, 1 part by weight of active ingredient is mixed with the stated amount of solvent and the concentrate is diluted to the desired concentration with water. Vessels are filled with sand, active ingredient solution, an egg/larvae suspension of the southern root-knot nematode (Meloidogyne incognita) and lettuce seeds. The lettuce seeds germinate and the plants develop. The galls develop on the roots. After 14 days, the nematicidal efficacy in % is determined by the formation of galls. 100% means that no galls were found; 0% means that the number of galls on the treated plants corresponds to the untreated control. [table] To produce an appropriate active ingredient formulation, 1 part by weight of active ingredient is mixed with the specified amount of solvent and the concentrate is diluted to the desired concentration with water. Vessels are filled with sand, active ingredient solution, an egg/larvae suspension of the southern root-knot nematode (Meloidogyne incognita) and lettuce seeds. The lettuce seeds germinate and the plants develop. The root-knots develop on the roots. After the desired time, the nematicidal effect is determined from the formation of root-knots in %. 100% means that no root-knots were found; 0% means that the number of root-knots on the treated plants corresponds to that on the untreated control.

Phaedon cochleariae [5] = assay: Phaedon cochleariae spray test (PHAECO S), cabbage leaves; conditions: 20 ppm, 7 dat
Description: as §2, with “Cabbage leaves (Brassica oleracea)” for “Cotton plants (Gossypium hirsutum) severely infested by the cotton aphid (Aphis gossypii)”, “concentration and populated with larvae of the mustard beetle (Phaedon cochleariae).” for “concentration.”, “beetle larvae” for “aphids”

Nezara viridula = Nezara viridula spray test (NEZARA / NEZAVI); conditions: 4 dat; for % efficacy: 500 g/ha
Description: as §2, with “ppm. Barley” for “ppm. Cotton”, “plants (Hordeum vulgare) infected with larvae of” for “plants (Gossypium hirsutum) severely infested by”, “the southern green shield bug (Nezara viridula)” for “the cotton aphid (Aphis gossypii)”, “the efficacy” for “the kill”, “all bugs” for “all aphids”, “no bugs” for “no aphids”

Tetranychus urticae = Tetranychus urticae spray test, OP-resistant (TETRUR); conditions: Tetranychus urticae, 144 h; TETRUR, 100 g/ha, 6 dat; read-out: % efficacy
Description: [table] To produce a suitable active ingredient formulation, 1 part by weight of active ingredient is dissolved with the specified parts by weight of solvent and made up to the desired concentration with water containing an emulsifier concentration of 1000 ppm. To produce further test concentrations, the formulation is diluted with emulsifier-containing water. Discs of bean leaves (Phaseolus vulgaris) infested with all stages of the greenhouse red spider mite (Tetranychus urticae) are sprayed with an active ingredient formulation of the desired concentration. After 6 days, the efficacy in % is determined. 100% means that all the spider mites have been killed; 0% means that no spider mites have been killed.

Myzus persicae [6] = assay: Myzus persicae drench test (MYZUPE D), savoy cabbage plants; conditions: soil, 240 h, 10 dat, read-out: % efficacy
Description: [table] To produce an appropriate active ingredient formulation, 1 part by weight of active ingredient is mixed with the specified amounts of solvent and emulsifier and the concentrate is diluted to the desired concentration with water, it being necessary to take into account the volume of soil into which drenching is effected. It should be ensured that a concentration of 40 ppm of emulsifier in the soil is not exceeded. For production of further test concentrations, the mixture is diluted with water. Savoy cabbage plants (Brassica oleracea) in soil pots, infested by all stages of the green peach aphid (Myzus persicae), are drenched with an active ingredient formulation of the desired concentration. After the desired time, the efficacy in % is determined. 100% means that all the aphids have been killed; 0% means that no aphids have been killed.

[7] = Phaedon cochleariae, foliar, 168 h
[8] = Phaedon cochleariae, foliar, 168 h, PHAECO, 20 g/ha, 7 dat
[9] = Nilaparvata lugens, 96 h, read-out: % efficacy

## CCS(=O)(=O)c1ccc(C(=O)NC2CC2)nc1-c1nc2cc(C(F)(F)C(F)(F)F)nnc2n1C [Example I-03]
Lucilia cuprina
  pest or weed control at 100 ppm: 100%
Myzus persicae [1]
  pest or weed control at 0.8 ppm: 100%
Myzus persicae [2]
  pest or weed control at 20 g/ha: 90%
  pest or weed control at 100 g/ha: 100%
Phaedon cochleariae [3]; [7]
  pest or weed control at 100 g/ha: 100%
Phaedon cochleariae [3]; [8]
  percent efficacy (larval mortality) at a fixed application rate at 20 g/ha: 100%
Aphis gossypii
  Emax at 4 ppm: 95%
Myzus persicae [4]
  Emax at 4 ppm: 100%
Nilaparvata lugens; [9]
  Emax at 20 g/ha: 80%
  Emax at 100 g/ha: 100%

## CCS(=O)(=O)c1ccc(C(N)=O)nc1-c1nc2cc(C(F)(F)C(F)(F)F)nnc2n1C [Example I-02]
Lucilia cuprina
  pest or weed control at 100 ppm: 100%
Meloidogyne incognita
  efficacy (nematicidal, gall formation): 90%
Myzus persicae [1]
  pest or weed control at 0.8 ppm: 100%
Myzus persicae [2]
  pest or weed control at 100 g/ha: 100%
Phaedon cochleariae [3]; PHAECO, 0.8 g/ha, 7 dat
  % efficacy: 83%
Phaedon cochleariae [3]; PHAECO, 4 g/ha, 7 dat
  % efficacy: 100%
Phaedon cochleariae [3]; [7]
  pest or weed control at 100 g/ha: 100%
Phaedon cochleariae [5]
  % efficacy: 100%
Nilaparvata lugens
  % efficacy: 90%
Nezara viridula
  % efficacy: 90%

## CCS(=O)(=O)c1ccc(C(=O)NC2CC2)nc1-c1nc2cc(C(F)(F)F)nnc2n1C [reference compound]
Myzus persicae [2]
  pest or weed control at 20 g/ha: 0%
Phaedon cochleariae [3]; [7]
  pest or weed control at 100 g/ha: 33%
Phaedon cochleariae [3]; [8]
  percent efficacy (larval mortality) at a fixed application rate at 20 g/ha: 33%
Aphis gossypii
  Emax at 4 ppm: 0%
Myzus persicae [4]
  Emax at 4 ppm: 0%
Nilaparvata lugens; [9]
  Emax at 20 g/ha: 0%
  Emax at 100 g/ha: 0%

## CCS(=O)(=O)c1ccc(NC(=O)N(C)C)nc1-c1nc2cc(C(F)(F)F)nnc2n1C [reference compound]
Myzus persicae [2]; MYZUPE, 4 g/ha, 5 dat, read-out: % efficacy
  Emax at 4 g/ha: 0%
Tetranychus urticae
  Emax at 100 g/ha: 0%
Aphis gossypii
  Emax at 4 ppm: 15%
Phaedon cochleariae [5]; Phaedon cochleariae, 168 h, read-out: % efficacy
  Emax at 20 ppm: 20%
Nilaparvata lugens; Nilaparvata lugens, 96 h, 4 g/ha, read-out: % efficacy
  Emax at 4 g/ha: 0%
Nezara viridula; Nezara viridula, 96 h, 4 g/ha, read-out: % efficacy
  Emax at 4 g/ha: 0%

## CCS(=O)(=O)c1ccc(C(N)=O)nc1-c1nc2cc(C(F)(F)C(F)(F)F)nnc2n1C [drawing 40, reference compound]
Meloidogyne incognita
  efficacy (nematicidal, gall formation): 0%
Phaedon cochleariae [3]; PHAECO, 0.8 g/ha, 7 dat
  % efficacy: 0%
Phaedon cochleariae [3]; PHAECO, 4 g/ha, 7 dat
  % efficacy: 33%
Phaedon cochleariae [5]
  % efficacy: 0%
Nilaparvata lugens
  % efficacy: 50%
Nezara viridula
  % efficacy: 0%

## CNC(=O)Nc1ccc(S(C)(=O)=O)c(-c2nc3cc(C(F)(F)F)nnc3n2C)n1 [reference compound]
Phaedon cochleariae [3]; [7]
  pest or weed control at 100 g/ha: 33%
Phaedon cochleariae [3]; Phaedon cochleariae, foliar, 168 h, PHAECO, 20 g/ha, 7 dat, read-out: % efficacy
  Emax at 20 g/ha: 0%
Aphis gossypii; 20 ppm
  Emax at 20 ppm: 0%
Myzus persicae [6]; 0.8 ppm
  Emax at 0.8 ppm: 0%
Myzus persicae [6]; 4 ppm
  Emax at 4 ppm: 0%
Nezara viridula; Nezara viridula, 96 h, 20 g/ha, read-out: % efficacy
  Emax at 20 g/ha: 0%
